We go through six compounds from US9475816B2, “Substituted-1,4-dihydropyrazolo[4,3-b]indoles” (TAKEDA PHARMACEUTICAL COMPANY LIMITED, priority 2012, dated 2016).

Assay [1] addresses T1, human MetAP2 enzyme (Homo sapiens, UniProt P50579). Kind of assay: MetAP2 enzyme assay, MetAP2 enzyme complexed with cobalt ions. Particulars: MetAP2 Co pIC50, 10 μM CoCl2; -log(IC50), IC50 molar.
Procedure: DNA encoding the full-length sequence of human MetAP2 enzyme is amplified by PCR and cloned into a pFastBac expression vector (Invitrogen). Recombinant baculovirus incorporating the MetAP2 construct is generated by transposition using the Bac-to-Bac system (Invitrogen). The expression of recombinant protein is carried out by infection of Spodoptera frugiperda Sf9 cells (Invitrogen) in 5L Wave Bioreactors (Wave Biotech). Recombinant protein is isolated from cellular extracts by binding to an SP Hitrap Fast Flow or SP Sepharose (Sigma) column, and the protein is eluted using a NaCl gradient. Partially purified extracts of MetAP2 are further purified by an AKTA FPLC over a Superdex-200 column (GE). The purity of MetAP2 protein is determined on denaturing SDS-PAGE gel.
The results for each well are expressed as percent inhibition and calculated using the equation:
In assay [2] the target is T1, human MetAP2 enzyme. Kind of assay: MetAP2 enzyme assay, MetAP2 enzyme complexed with manganese ions. Particulars: MetAP2 Mn pIC50, 10 μM MnCl2; -log(IC50), IC50 molar.
The next assay relates to angiogenesis. The conditions noted are these: cited from earlier work.
The conditions of assay [3]: mice; cited from earlier work.
For assay [4] the following is noted: genetically and diet-induced obese mice; cited from earlier work.

T1 sequence (P50579 whole entry): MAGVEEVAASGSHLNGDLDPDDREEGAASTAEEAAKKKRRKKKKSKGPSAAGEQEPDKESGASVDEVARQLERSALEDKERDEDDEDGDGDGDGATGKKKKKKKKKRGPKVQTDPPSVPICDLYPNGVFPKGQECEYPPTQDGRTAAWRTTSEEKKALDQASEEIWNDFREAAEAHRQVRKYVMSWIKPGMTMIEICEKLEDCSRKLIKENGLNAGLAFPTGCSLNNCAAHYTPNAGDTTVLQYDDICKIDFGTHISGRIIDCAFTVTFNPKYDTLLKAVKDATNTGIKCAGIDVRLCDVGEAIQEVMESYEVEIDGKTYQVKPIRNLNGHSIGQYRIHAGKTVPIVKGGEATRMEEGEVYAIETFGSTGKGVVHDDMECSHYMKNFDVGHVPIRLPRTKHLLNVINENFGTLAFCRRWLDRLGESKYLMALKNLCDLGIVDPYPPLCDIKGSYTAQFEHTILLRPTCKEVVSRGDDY

For `Cc1nc(N2C[C@H]3C[C@H]3[C@@H]2C(N)=O)ncc1-n1c2ccc(F)cc2c2[nH]ncc21` [Example 135, (1R,2R,5S)-3-(5-(7-Fluoropyrazolo[4,3-b]indol-4(1H)-yl)-4-methylpyrimidin-2-yl)-3-azabicyclo[3.1.0]hexane-2-carboxamide], the IC50 against human MetAP2 enzyme [1] and against human MetAP2 enzyme [2] was 5.01 nM in each case.
For the compound `Cc1nc(N2C[C@H]3C[C@H]3[C@H]2C(N)=O)ncc1-n1c2ccc(F)cc2c2[nH]ncc21` [Example 136, (1R,2S,5S)-3-(5-(7-Fluoropyrazolo[4,3-b]indol-4(1H)-yl)-4-methylpyrimidin-2-yl)-3-azabicyclo[3.1.0]hexane-2-carboxamide], the IC50 against human MetAP2 enzyme [1] and against human MetAP2 enzyme [2] was 5.01 nM in each case.
Consider `Cc1nc(N2CC[C@H](S(C)(=O)=O)C2)ncc1-n1c2ccc(F)cc2c2[nH]ncc21` [Example 137, 7-Fluoro-4-(4-methyl-2-((S)-3-(methylsulfonyl)pyrrolidin-1-yl)pyrimidin-5-yl)-1,4-dihydropyrazolo[4,3-b]indole], for which the values for the IC50 against human MetAP2 enzyme [1] and against human MetAP2 enzyme [2] were 10 nM and 6.31 nM, respectively.
Regarding `Cn1cc(-n2c3ccc(F)cc3c3[nH]ncc32)c(CO)n1` [Example 138, (4-(7-Fluoropyrazolo[4,3-b]indol-4(1H)-yl)-1-methyl-1H-pyrazol-3-yl)methanol], the IC50 on human MetAP2 enzyme [1] is 10 nM; against human MetAP2 enzyme [2], 5.01 nM.
Take `CO[C@@H]1[C@H](OC(=O)/C=C/C=C/C=C/C=C/C(=O)O)CC[C@]2(CO2)[C@H]1[C@@]1(C)O[C@@H]1CC=C(C)C` [fumagillin]: the angiogenesis entry in the assay with angiogenesis is recorded as “inhibit angiogenesis”. The “effect on diet-induced obesity” value in assay [3] is reported as “impair diet-induced obesity”.
On to beloranib hemioxalate [CKD-732], for which the “food intake, body weight, fat mass, size of adipocytes” value in assay [4] is “decrease food intake, body weight, fat mass, and the size of adipocytes”.
